Laboratory results reported in US8834848B2, “Flow and volume regulated inhalation for treatment of severe oral corticosteroid-dependent asthma” (Activaero GmbH Research & Development, priority 2009, dated 2014).

Columns and labels:
[1] = tested on: oral steroid-dependent asthma subjects; details: nominal 4-8 mg daily, conventional nebulizer; cited from earlier work
[2] = human, in vivo
Description: Thus the flow-controlled, slow inhalation at about 200 ml/sec enables maximum drug deposition in the target area of small airways. As further seen in FIG. 12, such inhalation method leads to an alveolar drug deposition of 40 to 50%. In contrast, alveolar deposition is below 10% when using a high inspiratory flow rate of 1000 ml/sec and a small inhalation volume of 350 ml, and it is 20-30% when using an inspiratory flow rate of 1000 ml/sec and an inhalation volume of 1800 ml. It is thus preferred to combine the controlled, slow flow rate of e.g. 200 ml/sec with higher inhalation volumes. As mentioned above, said inhalation volumes depend on the individual patient's lung function and the severity grade of the pulmonary disease, but in cooperation between physician and patient, a volume as high as is well tolerable for the patient can be chosen (see also Table 7).

[3] = Clinical trial: budesonide serum concentration analysis; assay type: in vivo, human; details: baseline to week 18; roughly 12 hours dosing interval
Description: For budesonide serum concentration analysis, blood was drawn in all four investigated groups either before inhalation or 30-60 minutes following inhalation at baseline (post-inhalation) and at week 18 (pre- and post-inhalation). Results are seen in FIG. 10.

[4] = after IV or inhalation administration; cited from earlier work
[5] = tested on: asthma in adults and children; details: 2000 μg once a day, AKITA protocol; cited from earlier work
healthy volunteers = details: inhalation; cited from earlier work
[6] = tested on: patients with chronic oral dependent asthma; details: cited from earlier work
[7] = tested on: children with acute exacerbated asthma; details: nebulized; cited from earlier work
[8] = tested on: patients with severe chronic asthma; details: 500 or 1000 μg twice daily; cited from earlier work
asthmatic children = details: 50 or 100 μg twice a day via dry powder inhaler; cited from earlier work
asthma patients = details: cited from earlier work
chronic asthma = details: at half the daily dose of beclomethasone or budenoside; cited from earlier work

Structure (SMILES)	subjects with side effects like oral thrush or disturbing sore throat [1] [%]	alveolar drug deposition [2]	accumulation of budesonide in serum [3]	elimination half-life [4] [h]	FEV1 improvement [5] [%]	amount of administered dose that reached the central portion of the lungs (estimated) [5] [µg]	reduction in oral steroid use [5] [%]	relative lung dose, large volume (750 ml) spacer versus nebulizer (healthy volunteers)	patients who discontinued the treatment ([6]; 4000 μg/day nebulized) [%]	reduction in the need for orally administered prednisone, 4000 μg versus 1000 μg per day ([6]; nebulized, bid)	efficacy compared to oral prednisolone [7]	adverse effects [8]	oral corticosteroid-sparing effect [8]	patients reporting adverse effects (asthmatic children) [%]	reduction of need for oral prednisolone (asthma patients; 2000 μg per day versus 1500 or 1000 μg/day)	hoarseness and oral candidiasis (asthma patients; higher doses)	adverse side effects (chronic asthma)	effect on FEV1 (chronic asthma)
CCCC1O[C@@H]2C[C@H]3[C@@H]4CCC5=CC(=O)C=C[C@]5(C)[C@H]4[C@@H](O)C[C@]3(C)[C@]2(C(=O)CO)O1 (stereo partly drawn) [budesonide]	11	40-50%	did not accumulate in serum	2.2 to 4.5														
CCC(=O)O[C@]1(C(=O)SCF)[C@H](C)C[C@H]2[C@@H]3C[C@H](F)C4=CC(=O)C=C[C@]4(C)[C@@]3(F)[C@@H](O)C[C@@]21C [fluticasone propionate]					17.1	500 to 700	33.2	sevenfold	37	significantly greater	at least as effective as oral prednisolone	topical adverse effects associated with inhaled corticosteroids were observed	eliminated a need for oral prednisone	51	more likely to reduce a need for oral prednisolone	significantly greater	higher risk of pharyngitis and other adverse side effects	improvement of forced expiratory volume in the first second (FEV1)
